# Source: patent US7939531B2, “Pyrrolopyrazine kinase inhibitors” (Roche Palo Alto, priority 2008, dated 2011)
# Structures can show the parent of a compound that is named as a salt.
# System: not given
# Assay: not given
row,SMILES,melting point
1,"CC(C)NC(=O)c1c[nH]c2ncc(N3CCCC(N(C)C(=O)OC(C)(C)C)C3)nc12 (stereo not drawn) [Compound I-7, [1-(7-Isopropylcarbamoyl-5H-pyrrolo[2,3-b]pyrazin-2-yl)-piperidin-3-yl]-methyl-carbamic acid tert-butyl ester]",251 to 252 °C
2,"CCC(CC)NC(=O)c1cc(-c2cnc3[nH]cc(C(=O)C4(C)CCCCC4)c3n2)cs1 (as salt: hydrochloride) [Compound I-43, 4-[7-(1-Methyl-cyclohexanecarbonyl)-5H-pyrrolo[2,3-b]pyrazin-2-yl]-thiophene-2-carboxylic acid (1-ethyl-propyl)-amide]",273 to 275 °C
3,"CC(C)(C)C(=O)c1c[nH]c2ncc(-c3cn(S(=O)(=O)c4ccccc4)c4ccccc34)nc12 [Compound I-1, 1-[2-(1-Benzenesulfonyl-1H-indol-3-yl)-5H-pyrrolo[2,3-b]pyrazin-7-yl]-2,2-dimethyl-propan-1-one]",267 to 268 °C
4,"CC(C)(C)C(=O)c1c[nH]c2ncc(-c3ccc(C(=O)NC4CCCC4)s3)nc12 [Compound I-31, 5-[7-(2,2-Dimethyl-propionyl)-5H-pyrrolo[2,3-b]pyrazin-2-yl]-thiophene-2-carboxylic acid cyclopentylamide]",> 300 °C
5,"COc1cncc(-c2cnc3[nH]cc(C(=O)C(C)(C)C)c3n2)c1 [Compound I-6, 1-[2-(5-Methoxy-pyridin-3-yl)-5H-pyrrolo[2,3-b]pyrazin-7-yl]-2,2-dimethyl-propan-1-one]",215 to 223.6 °C
6,"CC(C)(C)C(=O)c1c[nH]c2ncc(-c3ccnc(N4CCCC4)c3)nc12 [Compound I-11, 2,2-Dimethyl-1-[2-(2-pyrrolidin-1-yl-pyridin-4-yl)-5H-pyrrolo[2,3-b]pyrazin-7-yl]-propan-1-one]",275.1 to 276.4 °C
7,"CN(C)C1CCN(c2cc(-c3cnc4[nH]cc(C(=O)C(C)(C)C)c4n3)ccn2)C1 (stereo not drawn) [Compound I-14, 1-{2-[2-(3-Dimethylamino-pyrrolidin-1-yl)-pyridin-4-yl]-5H-pyrrolo[2,3-b]pyrazin-7-yl}-2,2-dimethyl-propan-1-one]",226 to 228 °C
8,"CC(C)(C)C(=O)c1c[nH]c2ncc(C3=C(c4ccccc4)CCC3)nc12 [Compound I-38, 2,2-Dimethyl-1-[2-(2-phenyl-cyclopent-1-enyl)-5H-pyrrolo[2,3-b]pyrazin-7-yl]-propan-1-one]",207 to 209 °C
9,"CC(C)(C)C(=O)c1c[nH]c2ncc(-c3ccnc(N4CCCCC4)c3)nc12 [Compound I-13, 2,2-Dimethyl-1-[2-(3,4,5,6-tetrahydro-2H-[1,2′]bipyridinyl-4′-yl)-5H-pyrrolo[2,3-b]pyrazin-7-yl]-propan-1-one]",250 to 251 °C
10,"CC(C)(C)C(=O)c1c[nH]c2ncc(-c3cn(C4CCCC4)nn3)nc12 [Compound I-12, 1-[2-(1-Cyclopentyl-1H-[1,2,3]triazol-4-yl)-5H-pyrrolo[2,3-b]pyrazin-7-yl]-2,2-dimethyl-propan-1-one]",193.3 to 199.3 °C
11,"CC(=O)N1CCN(c2cc(-c3cnc4[nH]cc(C(=O)C(C)(C)C)c4n3)ccn2)CC1 [Compound I-5, 1-{2-[2-(4-Acetyl-piperazin-1-yl)-pyridin-4-yl]-5H-pyrrolo[2,3-b]pyrazin-7-yl}-2,2-dimethyl-propan-1-one]",257 to 260 °C
12,"CNC1CCCN(c2cnc3[nH]cc(C(=O)NC(C)C)c3n2)C1 (stereo not drawn) [Compound I-8, 2-(3-Methylamino-piperidin-1-yl)-5H-pyrrolo[2,3-b]pyrazine-7-carboxylic acid isopropylamide; compound with trifluoro-acetic acid]",54 to 64 °C
13,"CC(C)(C)C(=O)c1c[nH]c2ncc(-c3ccc(C(=O)NC4CCOCC4)s3)nc12 [Compound I-32, 5-[7-(2,2-Dimethyl-propionyl)-5H-pyrrolo[2,3-b]pyrazin-2-yl]-thiophene-2-carboxylic acid (tetrahydro-pyran-4-yl)-amide]",> 300 °C
14,"CCOC(=O)c1cc2cc(C3=C(c4cnc5[nH]cc(C(=O)C(C)(C)C)c5n4)CCC3)ccc2[nH]1 [Compound I-39, 5-{2-[7-(2,2-Dimethyl-propionyl)-5H-pyrrolo[2,3-b]pyrazin-2-yl]-cyclopent-1-enyl}-1H-indole-2-carboxylic acid ethyl ester]",278 to 280 °C
15,"CC(C)(C)C(=O)c1c[nH]c2ncc(-c3ccnc(N4CCSCC4)c3)nc12 [Compound I-15, 2,2-Dimethyl-1-[2-(2-thiomorpholin-4-yl-pyridin-4-yl)-5H-pyrrolo[2,3-b]pyrazin-7-yl]-propan-1-one]",287 to 290 °C
16,"CC1CCCN1c1cc(-c2cnc3[nH]cc(C(=O)C(C)(C)C)c3n2)ccn1 (stereo not drawn) [Compound I-16, 2,2-Dimethyl-1-{2-[2-(2-methyl-pyrrolidin-1-yl)-pyridin-4-yl]-5H-pyrrolo[2,3-b]pyrazin-7-yl}-propan-1-one]",220 to 221 °C

# The next lines start with the values.
row,melting point,SMILES
1,235 to 237 °C,"CC(C)(C)C(=O)c1c[nH]c2ncc(-c3cn(Cc4ccccc4)nn3)nc12 [Compound I-105, 1-[2-(1-Benzyl-1H-[1,2,3]triazol-4-yl)-5H-pyrrolo[2,3-b]pyrazin-7-yl]-2,2-dimethyl-propan-1-one]"
2,224 to 225 °C,"CC1(C(=O)c2c[nH]c3ncc(-c4cccs4)nc23)CCCCC1 [Compound I-106, (1-Methyl-cyclohexyl)-(2-thiophen-2-yl-5H-pyrrolo[2,3-b]pyrazin-7-yl)-methanone]"
3,215 to 217 °C,"CC(C)(C)C(=O)c1c[nH]c2ncc(-n3ccnc3)nc12 [Compound I-107, 1-(2-Imidazol-1-yl-5H-pyrrolo[2,3-b]pyrazin-7-yl)-2,2-dimethyl-propan-1-one]"
4,235 to 236 °C,"CC1=NCCN1c1cnc2[nH]cc(C(=O)C(C)(C)C)c2n1 [Compound I-109, 2,2-Dimethyl-1-[2-(2-methyl-4,5-dihydro-imidazol-1-yl)-5H-pyrrolo[2,3-b]pyrazin-7-yl]-propan-1-one]"
5,276 to 278 °C,"CCc1nccn1-c1cnc2[nH]cc(C(=O)C(C)(C)C)c2n1 [Compound I-110, 1-[2-(2-Ethyl-imidazol-1-yl)-5H-pyrrolo[2,3-b]pyrazin-7-yl]-2,2-dimethyl-propan-1-one]"
6,247 to 249 °C,"Cc1nccn1-c1cnc2[nH]cc(C(=O)C(C)(C)C)c2n1 [Compound I-108, 2,2-Dimethyl-1-[2-(2-methyl-imidazol-1-yl)-5H-pyrrolo[2,3-b]pyrazin-7-yl]-propan-1-one]"
7,281 to 282 °C,"CC(C)(C)C(=O)c1c[nH]c2ncc(-c3cncs3)nc12 [Compound I-121, 2,2-Dimethyl-1-(2-thiazol-5-yl-5H-pyrrolo[2,3-b]pyrazin-7-yl)-propan-1-one]"
8,205 to 207 °C,"CC(C)(C)C(=O)c1c[nH]c2ncc(-n3ccc4ccccc43)nc12 [Compound I-97, 1-(2-Indol-1-yl-5H-pyrrolo[2,3-b]pyrazin-7-yl)-2,2-dimethyl-propan-1-one]"

# Target: JAK3: Recombinant human kinase domain (Homo sapiens, UniProt P52333)
# Assay: Determination of IC50 of Janus Kinase (JAK) Inhibition (radioactive end-point 33P-ATP kinase assay)
# Method: Assay conditions used are described below: • Assay Buffer: JAK Kinase Buffer: 50 mM Hepes [pH 7.2], 10 mM MgCl2, 1 mM DTT, 1 mg/ml BSA. The assay is carried out in this buffer. • Assay Format The kinase activity of all three JAK kinases is measured using a radioactive, end-point assay and with trace amounts of ^33P-ATP. The assays are carried out in 96-well polypropylene plates.
# All concentrations are final in the reaction mixture and all incubations are carried at room temperature. […] Final concentration of DMSO in the reaction is 10%. • 2) Compounds are preincubated with enzyme (0.5 nM JAK3 (commercially available), 0.2 nM JAK3 (prepared), 1 nM JAK2, 5 nM JAK1) for 10 minutes. • 3) Reactions are initiated by the addition of a cocktail of the two substrates (ATP and peptide premixed in the JAK Kinase Buffer). […] JAK1 assay is carried out at an ATP concentration of 10 uM and a peptide concentration of 50 uM. • 4) The duration of the assay for JAK2 and JAK3 is 20 minutes. JAK1 assay is carried out for 40 minutes. With all three enzymes, reactions are terminated by the addition of 0.5M EDTA to a final concentration of 100 mM. • 5) 25 ul of terminated reactions are transferred to 150 ul of a 7.5% (v/v) slurry of streptavidin-coated sepharose beads in MgCl2- and CaCl2-free 1× Phosphate Buffered Saline containing 50 mM of EDTA in 96-well, 1.2 um MultiScreen-BV filter plates. • 6) After a 30-minute incubation, the beads are washed under vacuum with the following buffers: • a. 3 to 4 washes with 200 ul of 2M NaCl. • b. 3 to 4 washes with 200 ul of 2M NaCl plus 1% (v/v) phosphoric acid. • c. 1 wash with water. • 7) Washed plates are dried in a 60° C. oven for between 1 to 2 hours. • 8) 70 ul of Microscint 20 scintillation fluid is added to each well of filter plates and after at least 30 minutes of incubation, radioactive counts are measured in a Perkinelmer microplate scintillation counter.
# Sequence of JAK3: Recombinant human kinase domain (P52333 822-1111 limits assumed): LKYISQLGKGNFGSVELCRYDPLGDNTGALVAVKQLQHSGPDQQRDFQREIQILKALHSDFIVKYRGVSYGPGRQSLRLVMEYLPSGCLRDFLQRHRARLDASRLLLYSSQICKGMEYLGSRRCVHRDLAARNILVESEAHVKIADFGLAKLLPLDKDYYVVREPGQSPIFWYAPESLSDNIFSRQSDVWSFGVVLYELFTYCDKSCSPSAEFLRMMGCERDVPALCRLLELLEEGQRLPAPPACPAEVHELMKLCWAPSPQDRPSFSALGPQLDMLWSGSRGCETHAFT
row,SMILES,IC50
1,"CN(CCO)C(=O)c1ccc(-c2cnc3[nH]cc(C(=O)C4(C)CCCCC4)c3n2)s1 [Compound I-73, 5-[7-(1-Methyl-cyclohexanecarbonyl)-5H-pyrrolo[2,3-b]pyrazin-2-yl]-thiophene-2-carboxylic acid (2-hydroxy-ethyl)-methyl-amide]",0.018 µM
2,"CN(CC#N)C(=O)c1cc(-c2cnc3[nH]cc(C(=O)C4(C)CCCCC4)c3n2)cs1 [Compound I-40, 4-[7-(1-Methyl-cyclohexanecarbonyl)-5H-pyrrolo[2,3-b]pyrazin-2-yl]-thiophene-2-carboxylic acid cyanomethyl-methyl-amide]",0.0447 µM
3,"CC1(C(=O)c2c[nH]c3ncc(-c4ccc(C(=O)N5CCC(O)C5)s4)nc23)CCCCC1 (stereo not drawn) [Compound I-74, {2-[5-(3-Hydroxy-pyrrolidine-1-carbonyl)-thiophen-2-yl]-5H-pyrrolo[2,3-b]pyrazin-7-yl}-(1-methyl-cyclohexyl)-methanone]",0.0283 µM
